Legend:
panel of 442 kinases [1] = molecular target: T1, panel of 442 kinases (Homo sapiens, UniProt Q96Q40); format: binding; settings: Compound Concentration 10 µM
T1 construct: purchased KINOMEscan
Text: (§1) We assessed the selectivity of members of this scaffold using the KINOMEscan methodology across a near comprehensive panel of 442 kinases [[18,27]].

panel of 442 kinases [2] = molecular target: T2, panel of 442 kinases (Homo sapiens, UniProt Q9H4B4); format: binding; settings: Compound Concentration 10 µM
T2 construct: purchased KINOMEscan
Text: as §1

T1 sequence (Q96Q40 whole entry): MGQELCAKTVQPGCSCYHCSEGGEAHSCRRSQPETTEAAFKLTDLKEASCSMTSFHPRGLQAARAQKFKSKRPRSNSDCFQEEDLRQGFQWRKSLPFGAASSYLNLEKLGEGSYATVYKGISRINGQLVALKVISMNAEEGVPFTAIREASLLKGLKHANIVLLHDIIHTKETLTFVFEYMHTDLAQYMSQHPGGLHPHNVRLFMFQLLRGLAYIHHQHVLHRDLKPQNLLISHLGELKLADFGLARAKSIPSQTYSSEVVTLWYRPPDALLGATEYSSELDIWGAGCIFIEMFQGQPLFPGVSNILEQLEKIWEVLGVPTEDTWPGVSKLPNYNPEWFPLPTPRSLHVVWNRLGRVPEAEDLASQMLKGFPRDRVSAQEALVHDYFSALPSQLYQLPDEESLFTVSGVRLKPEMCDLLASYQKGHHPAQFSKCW
T2 sequence (Q9H4B4 whole entry): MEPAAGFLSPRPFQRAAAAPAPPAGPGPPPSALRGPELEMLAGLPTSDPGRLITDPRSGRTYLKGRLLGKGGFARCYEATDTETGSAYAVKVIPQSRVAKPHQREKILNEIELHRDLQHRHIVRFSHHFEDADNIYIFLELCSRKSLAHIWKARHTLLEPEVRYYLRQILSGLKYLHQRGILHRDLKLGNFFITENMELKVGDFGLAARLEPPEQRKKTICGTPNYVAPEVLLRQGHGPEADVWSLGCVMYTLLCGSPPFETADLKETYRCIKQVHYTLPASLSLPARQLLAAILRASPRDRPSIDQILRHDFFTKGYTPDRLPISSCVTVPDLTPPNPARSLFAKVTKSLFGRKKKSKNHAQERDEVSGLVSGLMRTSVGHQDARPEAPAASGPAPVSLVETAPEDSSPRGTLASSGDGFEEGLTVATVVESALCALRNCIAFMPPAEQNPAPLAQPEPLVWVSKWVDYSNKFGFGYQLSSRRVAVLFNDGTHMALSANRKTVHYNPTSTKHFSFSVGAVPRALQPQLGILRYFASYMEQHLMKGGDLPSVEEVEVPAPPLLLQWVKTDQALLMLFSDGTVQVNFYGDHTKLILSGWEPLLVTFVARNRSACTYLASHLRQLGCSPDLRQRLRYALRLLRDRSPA

Compound	KINOMEscan: PFTAIRE2 (panel of 442 kinases [1])	KINOMEscan: PLK3 (panel of 442 kinases [2])
COc1cc(C(=O)N2CCC(N3CCN(C)CC3)CC2)ccc1Nc1ncc2c(n1)N(C)c1ccccc1C(=O)N2C [15 (LRRK2-IN-1)]	100	51
CCOc1cc(C(=O)N2CCC(N3CCN(C)CC3)CC2)ccc1Nc1ncc2c(n1)N(C1CCCC1)c1ccccc1C(=O)N2C [Compound 26]	100	84
COc1cc(C(=O)N2CCC(N3CCN(C)CC3)CC2)ccc1Nc1ncc2c(n1)N1CCc3cccc(c31)C(=O)N2C [Compound 24]		3.8
COc1cc(C(=O)N2CCC(N3CCN(C)CC3)CC2)ccc1Nc1ncc2c(n1)N(C1CCCC1)c1ccccc1C(=O)N2C [Compound 25, 11-cyclopentyl-2-((2-methoxy-4-(4-(4-methylpiperazin-1-yl)piperidine-1-carbonyl)phenyl)amino)-5-methyl-5H-benzo[e]pyrimido[5,4-b][1,4]diazepin-6(11H)-one]	99	73
